Structures are written as SMILES.

The nature of this data set: PBPK model simulation of maribavir alone. Set-up: species or system human. As to the method: A Physiologically-based Pharmacokinetic (“PBPK”) model based on prior in vitro and in vivo information on the metabolism and kinetics of maribavir was constructed with the aim of predicting plasma concentration-time profiles of maribavir and to evaluate the likely impact of coadministration of CYP3A4 inhibitors and inducers on the kinetics of maribavir in healthy subjects.
A combination of in vitro data and clinical pharmacokinetic data obtained following a single dose of 400 mg maribavir were used to develop the PBPK model. […] The Cmax was marginally under predicted, which could be expected because the PBPK model was optimized for better prediction of C12h.
Distribution models evaluated included a full PBPK model and a minimal PBPK model, both of which consider liver and intestinal metabolism. Mass balance data from the [^14C] ADME study indicated a fraction absorbed of 0.83 or greater following oral administration of 400 mg dose of maribavir. Absorption models evaluated included a simple first-order absorption model and a more mechanistic “Advanced Dissolution Absorption and Metabolism” (ADAM) model.
A comparison of observed and predicted plasma concentrations of maribavir following single oral doses of 800 mg and 1600 mg to healthy patients […]. […] The simulated and observed maribavir concentrations were in reasonable agreement.
A comparison of observed and predicted plasma concentrations of maribavir following multiple oral 400 mg BID doses of maribavir was performed. […] The simulated and observed maribavir concentrations were in reasonable agreement.

Setting [1] is: maribavir 400 mg BID alone (Table 7A).
Setting [2] is: maribavir 400 mg BID, 5 doses (Table 5A).
Where [3] appears, read: maribavir 400 mg single dose alone (Table 6A).
The mark [4] stands for this setting: maribavir 400 mg single oral dose.
The mark [5] stands for this setting: maribavir 800 mg single oral dose.
Setting [6] is: maribavir 1600 mg single oral dose.

In the case of `CC(C)Nc1nc2cc(Cl)c(Cl)cc2n1[C@H]1O[C@@H](CO)[C@H](O)[C@@H]1O` [maribavir, (2S,3S,4R,5S)-2-(5,6-dichloro-2-(isopropylamino)-1H-benzo[d]imidazol-1-yl)-5-(hydroxymethyl)tetrahydrofuran-3,4-diol], under setting [1], the “AUC(0-12 h), RATIO GEOMETRIC MEAN PREDICTED/OBSERVED” value is recorded as 1.03; the “AUC(0-12 h), RATIO MEAN PREDICTED/OBSERVED” value is on record as 1.06; the “C12 h, RATIO GEOMETRIC MEAN PREDICTED/OBSERVED” value was 0.92; the “C12 h, RATIO MEAN PREDICTED/OBSERVED” value is recorded as 1.14. Also, under setting [1], the “Cmax, RATIO GEOMETRIC MEAN PREDICTED/OBSERVED” value is on record as 0.85 and the “Cmax, RATIO MEAN PREDICTED/OBSERVED” value is reported as 0.84. Under setting [2], the “AUC(0-∞), RATIO MEAN PREDICTED/OBSERVED” value is on record as 1.07; the “C12 h, RATIO MEAN PREDICTED/OBSERVED” value was 1.18; the “Cmax, RATIO MEAN PREDICTED/OBSERVED” value is recorded as 0.85. Also, under setting [3], the “AUC(0-∞), GEOMEAN RATIO PREDICTED/OBSERVED” value is given as 0.78; the “AUC(0-∞), MEAN RATIO PREDICTED/OBSERVED” value was 0.79; the “Cmax, GEOMEAN RATIO PREDICTED/OBSERVED” value is recorded as 0.61; the “Cmax, MEAN RATIO PREDICTED/OBSERVED” value is reported as 0.62. Further, under setting [4], the “AUC(0-∞), RATIO MEAN PREDICTED/OBSERVED” value was 1.00 and the “Cmax, RATIO MEAN PREDICTED/OBSERVED” value is on record as 0.72. For the same compound, under setting [5], the “AUC(0-∞), RATIO MEAN PREDICTED/OBSERVED” value was 1.07 and the “Cmax, RATIO MEAN PREDICTED/OBSERVED” value was 0.91. Besides, under setting [6], the “AUC(0-∞), RATIO MEAN PREDICTED/OBSERVED” value was 0.90 and the “Cmax, RATIO MEAN PREDICTED/OBSERVED” value is 0.99.

These data come from patent publication US12447170B2, “Use of maribavir in treatment regimens” (priority 2021, dated 2025).
